Data from the NIST ThermoML archive (doi:10.1016/j.jct.2015.06.025).

Experiment: mn = molality of the nth substance listed, in mol/kg
Details: 101.3 kPa, Liquid; for viscosity: Capillary tube (Ostwald / Ubbelohde) method; for mass density: Pycnometric method

CCCC(CCC)C(=O)[O-].[Na+] [sodium valproate] + O
Details | mass density, 288.15 K [kg/m3] | mass density, 298.15 K [kg/m3] | mass density, 308.15 K [kg/m3] | viscosity, 288.15 K [mPa·s] | viscosity, 298.15 K [mPa·s] | viscosity, 308.15 K [mPa·s]
m1 = 0.01 | – | 997.43 | 994.42 | – | 0.8988 | 0.7252
m1 = 0.0102 | 999.51 | – | – | 1.153 | – | –
m1 = 0.0191 | 999.84 | 997.79 | – | 1.162 | 0.9064 | –
m1 = 0.02 | – | – | 994.78 | – | – | 0.7296
m1 = 0.0245 | 1000.06 | 997.98 | – | 1.169 | 0.9122 | –
m1 = 0.0303 | – | – | 995.13 | – | – | 0.7345
m1 = 0.0305 | 1000.3 | 998.22 | – | 1.177 | 0.9166 | –
m1 = 0.0401 | 1000.66 | 998.56 | – | 1.187 | 0.9238 | –
m1 = 0.0405 | – | – | 995.53 | – | – | 0.7397
m1 = 0.0453 | 1000.87 | 998.75 | – | 1.195 | 0.9268 | –
m1 = 0.0497 | – | – | 995.89 | – | – | 0.7444
m1 = 0.0501 | 1001.04 | 998.91 | – | 1.201 | 0.9318 | –
m1 = 0.0605 | – | – | 996.24 | – | – | 0.7499
m1 = 0.0608 | 1001.43 | 999.3 | – | 1.213 | 0.9391 | –
m1 = 0.0706 | 1001.79 | 999.64 | – | 1.225 | 0.9476 | –
m1 = 0.0708 | – | – | 996.63 | – | – | 0.7552
m1 = 0.08 | 1002.15 | 999.96 | – | 1.238 | 0.9558 | –
m1 = 0.0844 | – | – | 997.07 | – | – | 0.7617
m1 = 0.0902 | – | – | 997.29 | – | – | 0.7645
m1 = 0.0924 | 1002.59 | 1000.39 | – | 1.252 | 0.9653 | –
m1 = 0.0959 | – | – | 997.48 | – | – | 0.7686
m1 = 0.101 | – | – | 997.66 | – | – | 0.7716
m1 = 0.1021 | 1002.93 | 1000.72 | – | 1.262 | 0.9733 | –
m1 = 0.1154 | – | – | 998.16 | – | – | 0.7769
